Laboratory results taken from ChEMBL document CHEMBL1137937, “Synthesis and pharmacological evaluation of prenylated and benzylated pterocarpans against snake venom” (2004).

Assays:
Assay type in all cases: functional
Mus musculus [1] = species: Mus musculus; test: Inhibition of the increase of the rate of CK release induced by […] of Bothrops jararacussu venom on isolated EDL mouse muscles after 60 min of exposure at 0.1-30 uM
Mus musculus [2] = species: Mus musculus; test: Inhibition of the increase of the rate of CK release induced by […] of Bothrops jararacussu venom on isolated EDL mouse muscles after 60 min of exposure at 10-30 uM
Mus musculus [3] = species: Mus musculus; test: Inhibition of the increase of the rate of CK release induced by […] of Bothrops jararacussu venom on isolated EDL mouse muscles after 60 min of exposure at 0.1-1.0 uM
Mus musculus [4] = species: Mus musculus; test: Inhibition of the increase of the rate of CK release induced by […] of Bothrops jararacussu venom on isolated EDL mouse muscles after 60 min of exposure at 0.1-10 uM

SMILES	Inhibition (Mus musculus [1])	also measured
Oc1ccc2c(c1)OC[C@H]1c3cc4c(c(Cc5ccccc5)c3O[C@@H]21)OCO4	0%	
CC(C)=CCc1c2c(cc3c1O[C@H]1c4ccc(O)c(CC=C(C)C)c4OC[C@@H]31)OCO2	0%	
CC(C)=CCc1c(O)ccc2c1OC[C@H]1c3cc4c(cc3O[C@@H]21)OCO4		Inhibition (Mus musculus [2]): 0%; Inhibition (Mus musculus [3]): >40%
CC(C)=CCc1c2c(cc3c1O[C@H]1c4ccc(O)cc4OC[C@@H]31)OCO2	0%	
Oc1ccc2c(c1Cc1ccccc1)OC[C@H]1c3cc4c(cc3O[C@@H]21)OCO4		Inhibition (Mus musculus [4]): >70%
Oc1ccc2c(c1Cc1ccccc1)OC[C@H]1c3cc4c(c(Cc5ccccc5)c3O[C@@H]21)OCO4	0%	
Oc1ccc2c(c1)OC[C@H]1c3cc4c(cc3O[C@@H]21)OCO4 [MAACKIAIN]	0%	
